{"source": "patent US20130150430A1", "about": "“Methods for Impairing the P53/HDM2 Auto-Regulatory Loop in Multiple Myeloma Development Using mIR-192, mIR-194 and mIR-215” (THE OHIO STATE UNIVERSITY, priority 2011, published 2013)", "type_in_all_cases": "cell-based, human", "key": {"WT p53 MM cells": {"tested_on": "WT p53 MM cells", "assay": "Colony suppression assay after lentiviral miRNA transduction", "conditions": "lentivirus-transduced WT p53 cells; miR-34a internal control; scored at 14 days", "experimental": "FIG. 3E, FIG. 3F: Soft agar colony suppression assay in WT TP53 and mutant TP53 MM cell lines after miRNAs transduction by lentivectors.\nA total of 30×10^3 cells were infected with Lenti-mir-192: PMIRH 192-PA-1 Lenti-mir-194-1:PMIRH 1941PA-1; Lenti-mir-215:PMIRH 215 PA-1; Control Lentivector(pCDH-CMV-EFI-copGFP cDNA cloning and Expression vector): CD511 B-1 (System Biosciences) as per the manufacturer's protocol. MM cells were plated in quadruplicate in 1 mL of methylcellulose medium for Mouse cells (Cat#03234, Stem cell Technologies) in 6-well culture plates. Colonies consisting of more than 40 (125μ) cells were scored at 14 days."}, "HDM2 3′UTR": {"tested_on": "HDM2 3′UTR", "assay": "Luciferase reporter assay, pGL3-MDM2-3'UTR", "conditions": "MM1s cells, construct containing all MREs", "experimental": "FIG. 4G: miRNAs predicted to interact with HDM2 gene in several consensus binding sites (x) at its 3′-UTR, according to “in silico” RNA-22 prediction software. Luciferase assay showing decreased luciferase activity in cells co-transfected with pGL3-MDM2-3′UTR and miR-192, miR-194, miR-215 and Scr sequence. See also FIG. 18. All experiments were performed in triplicate ±SD.\nTo verify that HDM2 is a direct target of miR-192, miR-194 and miR-215, HDM2 3′UTR containing all MREs (˜4K), was cloned into pGL3 basic construct downstream of the luciferase open reading frame (FIG. 4D). This reporter construct was used to transfect the highly transfectable MM1s cells that express the endogenous miRs following up-modulated p53 expression.\nMM1s cells were cotransfected with 1 μg of pGL3 firefly luciferase reporter vector, 0.1 μg of the phRL-SV40 control vector (Promega), and 100 nM miRNA precursors (Ambion) using nucleoporation (LONZA) Cell Line Nucleofector Kit V. Firefly and Renilla luciferase activities were measured consecutively by using the Dual Luciferase Assay (Promega) 24 hr after transfection. Each reporter plasmid was transfected at least twice (on different days) and each sample was assayed in triplicate. […]"}, "[1]": {"tested_on": "IGF-1R and IGF-1 in MM1s cells", "assay": "Western blot of IGF-1R and IGF-1 after miRNA transfection", "conditions": "pre-miRNA transfected", "experimental": "FIG. 6A, FIG. 6B: Western blot showing IGF-1R and IGF-1 expression after miR-192 and miR-215 transfection using pre (FIG. 6A) and ASOs (FIG. 6B) for miR-192, miR-215, miR-194 and Scr in MM1s cells treated for 12 hr with Nutlin-3a.\nSamples were extracted in 15 mM Tris.Cl, pH 7.5/120 mM NaCl/25 mM KCl/2 mM EGTA/0.1 mM DTT/0.5% Triton X-100/[…] leupeptin/0.5 mM PMSF. Total protein (35 μg) from each sample was separated on a 4-20% Tris-HCl-Criterion precast gel Bio-Rad (cat#345-0032, Hercules, Calif.) and transferred to a poly(vinylidene difluoride) filter (Millipore). The filter was blocked in 5% nonfat dry milk, incubated with the specific antibody, washed, and probed with secondary antibody IgG conjugated to horseradish peroxidase (Santa Cruz Biotechnology), and developed with enhanced chemiluminescence (Amersham Pharmacia). […]"}, "[2]": {"tested_on": "NCI-H929 and RPMI-8226 IGF-1 treated cells", "assay": "Adhesion assay on fibronectin in response to IGF-1", "conditions": "ectopic expression, vs Scr control", "experimental": "FIG. 21A, FIG. 21B: MM1s and RPMI-8226 cells (pre-miRNA-192, -194, -215, Scr sequence-transfected) at 48 hr after transfection were harvested, treated with calcein and incubated with IGF-1 (50 ng/ml) and their ability to adhere to fibronectin plates was assessed by fluorescence assay. MM1s (FIG. 21A) and RPMI-8226 (FIG. 21B) with ectopic re-expression of miR-192, 215 and also miR-194 lost their ability to respond to IGF-1 treatment compare to Scr sequence.\nBefore adhesion, MM cell lines were starved overnight in RPMI 1640/0.5% BSA, without loss of viability. Cells (5×10^6/ml) were labeled with calcein-a.m. (Molecular Probes, Eugene, Oreg.) for 30 min at 37° C., washed, and resuspended in adhesion medium (RPMI 1640/10% FBS). Cells were stimulated with or without IGF-1 at 0-200 ng/ml for 20 min and added in triplicate to Fibronectin-coated 48 well plates (BD Biosciences #354506, Bedford, Mass.) at 37° C. for 30 min, and unbound cells were removed by four washes with RPMI1640. The absorbance of each well was measured using 492/520 nm filter set with a fluorescence plate reader (Wallac VICTOR2; Perkin-Elmer, Boston, Mass.)."}}, "data": [{"substance": "miR-192: microRNA, p53-activated, down-regulated in MM; transfected as miRNA precursor (Ambion) or lentivector; SEQ ID NO:56 (CUGACCUAUGAAUUGACAGCC; listed as RNA, chemistry not given here; listed as Homo sapiens)", "values": [{"measurement": "colony formation", "setting": "WT p53 MM cells", "result": "suppressed colony formation to an extent comparable to miR-34a"}, {"measurement": "luciferase expression of HDM2 3′UTR reporter", "setting": "HDM2 3′UTR", "result": "significantly diminished"}, {"measurement": "IGF-1R and IGF-1 protein levels", "setting": "[1]", "result": "decreased"}, {"measurement": "cell adhesion", "setting": "[2]", "result": "significant decrease"}]}, {"substance": "miR-215: microRNA, p53-activated, down-regulated in MM; transfected as miRNA precursor (Ambion) or lentivector; SEQ ID NO:58 (AUGACCUAUGAAUUGACAGAC; listed as RNA, chemistry not given here; listed as Homo sapiens)", "values": [{"measurement": "colony formation", "setting": "WT p53 MM cells", "result": "suppressed colony formation to an extent comparable to miR-34a"}, {"measurement": "luciferase expression of HDM2 3′UTR reporter", "setting": "HDM2 3′UTR", "result": "significantly diminished"}, {"measurement": "IGF-1R and IGF-1 protein levels", "setting": "[1]", "result": "decreased"}, {"measurement": "cell adhesion", "setting": "[2]", "result": "significant decrease"}]}]}
